According to patent US20220144812A1, “QUINOLINE DERIVATIVES AND THEIR USE FOR THE TREATMENT OF CANCER” (Epizyme, Inc., priority 2019, published 2022):
Where two headings read alike, the source gives them in different places.

Experiments:
[1] = biological target: T1, EP300 (P300(1048-1664)) (Homo sapiens, UniProt Q09472); test: Biochemical assay for EP300, SAMDI; details: read-out: EP300 Biochemistry IC50
T1 construct: P300(1048-1664)
T1 sequence (Q09472 1048-1664): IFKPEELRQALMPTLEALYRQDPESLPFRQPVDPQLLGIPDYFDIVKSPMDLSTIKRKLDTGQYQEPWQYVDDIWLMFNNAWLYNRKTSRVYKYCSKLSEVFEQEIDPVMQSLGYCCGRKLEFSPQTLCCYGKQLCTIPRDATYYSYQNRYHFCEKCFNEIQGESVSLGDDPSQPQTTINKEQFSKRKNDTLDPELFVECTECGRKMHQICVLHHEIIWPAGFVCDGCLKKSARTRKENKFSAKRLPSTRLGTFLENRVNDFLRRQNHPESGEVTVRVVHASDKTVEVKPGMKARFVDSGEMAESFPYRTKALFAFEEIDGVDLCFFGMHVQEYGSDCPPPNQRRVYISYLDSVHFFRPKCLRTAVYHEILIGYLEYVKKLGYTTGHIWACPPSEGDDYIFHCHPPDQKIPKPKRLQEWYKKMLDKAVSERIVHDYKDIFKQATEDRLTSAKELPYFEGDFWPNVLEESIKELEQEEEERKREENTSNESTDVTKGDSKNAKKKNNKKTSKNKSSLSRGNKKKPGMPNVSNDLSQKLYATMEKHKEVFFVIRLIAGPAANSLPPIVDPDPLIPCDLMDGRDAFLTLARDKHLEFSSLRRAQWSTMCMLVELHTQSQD
Excerpt: The following example describes materials and methods relating to a biochemical assay for EP300. IC50 values (micromolar (μM)) are summarized in Table 1, Table 2, and Table 3 under the column labeled: “EP300 Biochemistry IC50 (micromolar).”

[2] = test system: H3K18Ac in HB-CLS-2 cells; test: H3K18AC in-cell western (ICW) assay; type: cell-based; details: read-out: CREBBP ICW IC50
In short: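 In-cell western: after methanol fixation, blocking, overnight 4° C anti-H3K18Ac staining, then 800CW secondary plus DRAQ5 for DNA content, integrated intensities were scanned at 800 and 700 nm. Before this, compound exposure lasted 2 hr at 37° C in HB-CLS-2 cells plated 16–24 hours earlier. Values expressed as IC50 (μM).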

[3] = test system: 647V cells; test: High throughput proliferation (HTP) assay; type: cell-based; details: Homo sapiens, 647-V, read-out: CREBBP HTP IC50
In short: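 Proliferation IC50 (micromolar) derived from a 7-day CellTiter-Glo viable-cell readout in 647V cells exposed, in triplicate, to rising compound concentrations; cells grown in DMEM plus 15% heat-inactivated FBS at 37° C under 5% CO2.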

[4] = biological target: T2, CREBBP (1084-1701) (Homo sapiens, UniProt Q92793); test: Biochemical assay for CREBBP (1084-1701), SAMDI; details: read-out: CREBBP Biochemistry IC50
T2 construct: measured in the following biochemical assay using CREBBP (1084-1701); purchased
T2 sequence (Q92793 1084-1701): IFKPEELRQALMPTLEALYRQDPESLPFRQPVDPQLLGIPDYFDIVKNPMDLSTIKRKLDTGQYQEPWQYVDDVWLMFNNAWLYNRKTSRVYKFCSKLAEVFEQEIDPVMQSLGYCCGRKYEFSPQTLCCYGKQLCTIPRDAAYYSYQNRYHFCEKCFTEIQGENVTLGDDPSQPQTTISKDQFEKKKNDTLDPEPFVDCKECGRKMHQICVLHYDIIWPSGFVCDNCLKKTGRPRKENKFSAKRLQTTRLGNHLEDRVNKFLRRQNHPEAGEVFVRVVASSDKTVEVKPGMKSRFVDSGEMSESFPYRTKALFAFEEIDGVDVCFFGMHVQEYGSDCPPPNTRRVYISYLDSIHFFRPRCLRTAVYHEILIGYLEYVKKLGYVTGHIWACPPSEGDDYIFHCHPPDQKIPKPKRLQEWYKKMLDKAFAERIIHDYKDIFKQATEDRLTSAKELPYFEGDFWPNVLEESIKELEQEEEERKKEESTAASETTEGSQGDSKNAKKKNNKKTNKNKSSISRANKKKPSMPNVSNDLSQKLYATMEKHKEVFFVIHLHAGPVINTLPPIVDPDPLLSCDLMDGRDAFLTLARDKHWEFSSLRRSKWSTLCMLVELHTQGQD
In short: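 Acetyltransferase activity measured by SAMDI mass spectrometry after capture on biochip. Enzyme sat with compound 30 min at RT before acetyl-CoA and biotinylated H3 11-25 (K14R, K23R) peptide were added for 30 min at RT. Formic acid quench, bicarbonate neutralisation; IC50 values reported.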

[5] = P300(1048-1664), Peptide #233, Ac-CoA, SAMDI mass spectrometry
[6] = 2 h, H3K18Ac in HB-CLS-2 cells, 2 hrs compound incubation
[7] = 168 h, 647V cells, day 7, CellTiter-Glo
[8] = Peptide #233, Acetyl-CoA, SAMDI mass spectrometry

Row | SMILES | IC50 ([1]; EP300, SAMDI) [nM] | IC50 ([2]; H3K18Ac in-cell western) [nM] | IC50 ([3]; high throughput proliferation) [nM] | IC50 ([4]; SAMDI) [nM] | IC50 [1, 5] [nM] | IC50 [2, 6] [nM] | IC50 [3, 7] [nM] | IC50 [4, 8] [nM]
1 | CCc1noc(CN(C)C(=O)c2nc(-c3cc4c(NC)[nH]nc4cc3C)nc3ccc(Cl)cc23)c1C [Compound 615] | 3.1 | 29.1 | 19.5 | 9.75 |  |  |  | 
2 | CNc1[nH]nc2ccc(-c3nc(C(=O)N(C)Cc4cnc(C5CC5)n4C)c4cc(COC)ccc4n3)cc12 [Compound 616] | 14.4 | 102 | 160 | 25.1 |  |  |  | 
3 | CNc1[nH]nc2cc(C)c(-c3nc(C(=O)N(C)Cc4cnc(C5CC5)n4C)c4cc(COC)ccc4n3)cc12 [Compound 617] | 13.3 | 87.6 | 84.1 | 40.8 |  |  |  | 
4 | CCn1ncc(CN(C)C(=O)c2nc(-c3cc(C(F)(F)F)c4[nH]nc(N)c4c3)nc3ccc(Cl)cc23)c1C [Compound 618] | 285 | 248 | 701 | 53.7 |  |  |  | 
5 | CCn1ncc(CN(C)C(=O)c2cc(-c3ccc(NCCN(C)C)c(C(F)(F)F)n3)nc3ccc(Cl)cc23)c1C [Compound 619] | 14.5 | 59.9 | 32.5 | 23.8 |  |  |  | 
6 | CNc1[nH]nc2cc(C)c(-c3nc(C(=O)N(C)Cc4cnn(CC(F)(F)F)c4C)c4cc(Cl)ccc4n3)cc12 [Compound 620] | 12.3 | 67.2 | 77.7 | 25.1 |  |  |  | 
7 | CCn1ncc(CN(C)C(=O)c2nc(-c3cnc4n[nH]c(N)c4c3)nc3ccc(Cl)cc23)c1C [Compound 621] | 397 | 222 | 391 | 216 |  |  |  | 
8 | CCc1noc(C(C)N(C)C(=O)c2nc(-c3cc4c(NC)[nH]nc4cc3C)nc3ccc(Cl)cc23)c1C (centres unmarked) [Compound 622] | 383 | 1320 | 2300 | 107 |  |  |  | 
9 | CCn1ncc(CN(C)C(=O)c2nc(-c3cc(C(F)(F)F)c4[nH]nc(NC)c4c3)nc3ccc(Cl)cc23)c1C [Compound 623] | 28.3 | 230 | 711 | 43.9 |  |  |  | 
10 | CCn1ncc(CN(C)C(=O)c2nc(-c3cc4c(NC)noc4cc3C)nc3ccc(Cl)cc23)c1C [Compound 624] | 9.2 | 113 | 284 | 18.3 |  |  |  | 
11 | CCn1ncc(CN(C)C(=O)c2cc(-c3ccc(NCCS(C)(=O)=O)c(C)n3)nc3ccc(Cl)cc23)c1C [Compound 625] | 11.3 | 114 | 163 | 19.2 |  |  |  | 
12 | Cc1nc(-c2cc(C(=O)N(C)Cc3cn(C)c(CC(F)(F)F)n3)c3cc(Cl)ccc3n2)ccc1NCCN(C)C [Compound 626] | 4240 | 3210 | 5780 | 3310 |  |  |  | 
13 | CCc1ncc(CN(C)C(=O)c2cc(-c3cc(C(=O)NC)n(C)n3)nc3ccc(COC)cc23)n1C [Compound 627] | 15.6 | 271 | 506 | 49.6 |  |  |  | 
14 | CCn1ncc(CN(C)C(=O)c2cc(-c3ccc(NCC4CN(C)CCO4)c(C)n3)nc3ccc(Cl)cc23)c1C (centres unmarked) [Compound 628] | 1730 | 3300 | 997 | 3630 |  |  |  | 
15 | CCc1ncc(CN(C)C(=O)c2cc(-c3cc(-c4ncc[nH]4)n(C)n3)nc3ccc(COC)cc23)n1C [Compound 629] | 16.8 | 256 | 292 | 34 |  |  |  | 
16 | CCc1ncc(CN(C)C(=O)c2nc(-c3cc(-c4ncc[nH]4)n(C)n3)nc3ccc(Cl)cc23)n1C [Compound 631] |  |  |  |  | 8.8 | 125 | 194 | 16.7
17 | CCn1ncc(CN(C)C(=O)c2nc(-c3cnc4n[nH]c(NC)c4c3)nc3ccc(Cl)cc23)c1C [Compound 632] |  |  |  |  | 4.6 | 42.1 | 105 | 3.2
18 | CCc1ncc(CN(C)C(=O)c2nc(-c3cc(C(=O)NC)n(C)n3)nc3ccc(C4CC4)cc23)n1C [Compound 633] |  |  |  |  | 14.6 | 227 | 369 | 34.3
19 | CCn1ncc(CN(C)C(=O)c2cc(-c3cc(C(=O)NC)n(C)n3)nc3ccc(C4CC4)cc23)c1C [Compound 635] |  |  |  |  | 6.6 | 52.6 | 143 | 24.2
20 | CCc1ncc(CN(C)C(=O)c2cc(-c3cc(C(=O)NC)n(C)n3)nc3ccc(C4CC4)cc23)n1C [Compound 636] |  |  |  |  | 5.6 | 65.4 | 132 | 24.8
21 | CCc1ncc(CN(C)C(=O)c2cc(-c3ccc(NCCN(C)C)c(C)n3)nc3ccc(COC)cc23)n1C [Compound 637] |  |  |  |  | 34.4 | 420 | 295 | 98.7
22 | CCn1ncc(CN(C)C(=O)c2nc(-c3cc(C(=O)NC)n(C)n3)nc3ccc(C4CC4)cc23)c1C [Compound 638] |  |  |  |  | 66.2 | 124 | 357 | 116
23 | CCn1ncc(C(N(C)C(=O)c2cc(-c3ccc(NCCN(C)C)c(C)n3)nc3ccc(Cl)cc23)C(F)(F)F)c1C (centres unmarked) [Compound 639] |  |  |  |  | 50000 | 20000 | 2170 | 50000
24 | Cc1nc(-c2cc(C(=O)N(C)Cc3cnc(C4CC4)n3C)c3cc(Cl)ccc3n2)ccc1NC1CCN(C)C1 (centres unmarked) [Compound 640] |  |  |  |  | 9 | 135 | 48.7 | 24.6
25 | COCc1ccc2nc(-c3ccc(NCCN(C)C)c(C)n3)cc(C(=O)N(C)Cc3cnc(C4CC4)n3C)c2c1 [Compound 641] |  |  |  |  | 22.1 | 200 | 111 | 73.3
26 | CCc1ncc(CN(C)C(=O)c2cc(-c3ccc(NC4CCN(C)C4)c(C)n3)nc3ccc(Cl)cc23)n1C (centres unmarked) [Compound 642] |  |  |  |  | 9.1 | 86.6 | 33.4 | 28.1
